Data reported in US10577340B1, “Beraprost-314d crystals and methods for preparation thereof” (CHIROGATE INTERNATIONAL INC., priority 2018, dated 2020).
Entries after “also recorded” stand apart in the source; their conditions may differ.

What was measured:
[1] = Crystalline form transformation from Form III to Form II at room temperature; format: physicochemical; details: FIG. 5
Protocol: (§1) X-ray Powder Diffraction (XRPD) Analysis: The XRPD patterns were collected on a Bruker D2 PHASER diffractometer with fixed divergence slits and ID LYNXEYE detector. The samples (ca. 100 mg) were flatly placed on a sample holder. The prepared samples were analyzed over a […] from 5° to 50° with step size of 0.02 degrees and step time of 1 second using CuKα radiation at a power of 10 mA and 30 kV. The CuKβ radiation was removed by a divergent beam nickel filter.
The Beraprost-314d crystal Form III (0.5 g, from Example 5) was placed in a glass vial, and isothermal at room temperature for 1 day.

[2] = Storage stability of the crystalline form (crystalline form change, degradation products); format: physicochemical; details: six months
Protocol: as §1

Substance | crystalline form transformation ([1]; glass vial, isothermal at room temperature for 1 day) | time until conversion to Beraprost-314d crystal Form II ([1]; keeping at room temperature) | stability during storage (other crystalline forms, degraded products) ([2]; normal storage temperatures (about −20° C.)) | stability during storage (other crystalline forms) ([2]; room temperature (about 20 to 25° C.))
Beraprost-314d [Beraprost-314d crystal Form III] | completely converted to Beraprost-314d crystal Form II | ≤ 1 days | – | –
Beraprost-314d [Beraprost-314d crystal Form II] | – | – | no other crystalline forms or degraded products of impurities; also recorded: good stability with no other crystalline forms | good stability with no other crystalline forms
